# Results from patent US4479951A, “1.4;3.6-Dianhydrohexitol nitrates substituted by purine bases, processes for their preparation and pharmaceutical compositions” (Dr. Willmar Schwabe GmbH & Co., priority 1980, dated 1984).
# What was measured:
# guinea pigs = assay: blood pressure-lowering effectiveness on narcotised guinea pigs, intravenous; assay type: in vivo, guinea pig; details: for blood pressure previously: before administration
# [1] = acute toxicity, intravenous; assay type: in vivo; details: mouse, in vivo, iv; read-out: Evaluated LD50-range
# female NMRI-albino mice = assay: acute toxicity, intravenous; assay type: in vivo; details: mouse, in vivo
# [2] = tested on: isolated rat aorta preparations; assay: spasmolytic effectiveness, potassium chloride-induced contractions; details: read-out: ED50 potassium chloride spasm
compound,measurement,setting,value
"Nc1ncnc2c1ncn2[C@H]1CO[C@H]2[C@@H]1OC[C@@H]2O[N+](=O)[O-] [1c/2c, 5-(9-Adenyl)-5-desoxy-1.4;3.6-dianhydro-L-iditol 2-nitrate]",blood pressure afterwards,guinea pigs; 0.25 mg/kg i.v.,50.50 ± 2.33 mm. Hg
same,blood pressure Δ,guinea pigs; 0.25 mg/kg i.v.,-17.75 mm. Hg
same,blood pressure previously,guinea pigs; 0.25 mg/kg i.v.,68.25 ± 2.50 mm. Hg
same,blood pressure afterwards,guinea pigs; 1.00 mg/kg i.v.,41.50 ± 3.97 mm. Hg
same,blood pressure Δ,guinea pigs; 1.00 mg/kg i.v.,-28.00 mm. Hg
same,blood pressure previously,guinea pigs; 1.00 mg/kg i.v.,69.50 ± 2.90 mm. Hg
same,blood pressure afterwards,guinea pigs; 2.50 mg/kg i.v.,38.75 ± 2.66 mm. Hg
same,blood pressure Δ,guinea pigs; 2.50 mg/kg i.v.,-31.25 mm. Hg
same,blood pressure previously,guinea pigs; 2.50 mg/kg i.v.,70.00 ± 2.27 mm. Hg
same,"blood pressure-lowering effectiveness, comparison",guinea pigs; i.v.,even more effective than ISDN
same,LD50 at 24 h,[1],> 200 mg/kg
same,Frequency of death,female NMRI-albino mice,0/6
same,IC50,[2],2800 nM
